Legend:
LNCaP cells = assay: Cell viability assay (MTS) in LNCaP cells; type: cell-based; settings: doses 1 μM to 80 μM
Method: Cell line LNCaP was used for this assay. LNCaP cells were plated in 96-well plates at a density of 5000 cells per well. After 24 hours of plating, cells were treated with increasing doses of compound ranging from 1 μM to 80 μM. Relative cell numbers were analyzed after 48 hours using a 3-(4,5-dimethylthiazol-2-yl)-5-(3-carboxymethoxyphenyl)-2-(4-sulfophenyl)-2H-tetrazolium (MTS) assay (Promega) according to the manufacturer's directions.
LNCaP cells were treated with increasing doses of Target compound and cell viability was measured at 48 hours by MTS analysis.
The cell viability data was analyzed with GraphPad Prism software. The values were log transformed and analyzed with nonlinear regression (curve-fit) using log(inhibitor) vs. response variable slope (four parameters) and constraining the bottom to equal zero.

[1] = molecular target: T1, Human Pregnane X Receptor (PXR, NR1I2) (Homo sapiens, UniProt O75469); assay: PXR activation assay (Puracyp DPX2-96-001); type: cell-based
T1 construct: host or cells: DPX2 cells of the kit
T1 sequence (O75469 1-434): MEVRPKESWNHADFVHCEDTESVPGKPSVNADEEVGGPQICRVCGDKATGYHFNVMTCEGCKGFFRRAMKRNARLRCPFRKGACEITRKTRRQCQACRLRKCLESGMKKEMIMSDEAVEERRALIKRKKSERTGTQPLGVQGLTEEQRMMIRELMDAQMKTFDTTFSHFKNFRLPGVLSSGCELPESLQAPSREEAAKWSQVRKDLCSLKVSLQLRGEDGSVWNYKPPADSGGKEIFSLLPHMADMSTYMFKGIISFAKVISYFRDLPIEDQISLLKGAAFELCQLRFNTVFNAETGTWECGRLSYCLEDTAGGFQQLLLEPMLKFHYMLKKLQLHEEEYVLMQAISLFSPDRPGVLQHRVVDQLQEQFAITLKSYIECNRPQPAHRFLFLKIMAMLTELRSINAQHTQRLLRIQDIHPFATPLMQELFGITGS
Source text: PXR is a nuclear hormone receptor involved in the transcriptional regulation of a number of metabolic enzymes (e.g. CYP3A4) and transporters (e.g. PGP). Its activation by xenobiotic substances leads to upregulation of those metabolic enzymes and transporters and consequent removal of those substances from systemic circulation. It is not uncommon to find that drugs activate the PXR receptor with problematic consequences. […] In addition, if the drug itself is metabolized by, for example, CYP3A4, then there can be reduced exposure of the drug on repeated administration (auto-induction). It is thus considered beneficial to eliminate or at least minimize PXR activation if drug candidates. For drug series where PXR activation is significant, PXR activation is generally treated as a key criterion for optimization and advancement (V. Chu et al., Drug Metab. Dispos. 37, 1339 (2009).
PXR activation assay was performed according to manufacturer's instructions (Puracyp, Inc, Catalog #DPX2-96-001).

[2] = Concentration observed is at 10 μM

Row | SMILES | GI50 (LNCaP cells; Homo sapiens, LNCaP, 48 h) [µM] | Maximum fold activation observed (Average) [1, 2] | Percent positive control response [1, 2] [%] | Percent positive control response ([1]; @30 μM) | GI50 (LNCaP cells; 48 hours) [µM]
1 | CCCN=S(=O)(N[C@@H]1COC[C@H](N2c3ccccc3Oc3ccccc32)[C@H]1O)c1ccc(OC(F)(F)F)cc1 (stereo partly drawn) [Target T15C, N-((3R,4R,5S)-4-hydroxy-5-(10H-phenoxazin-10-yl)tetrahydro-2H-pyran-3-yl)-N′-propyl-4-(trifluoromethoxy) benzenesulfonimidoamide] | 55.4 |  |  |  | 
2 | CN=[S@@](=O)(N[C@@H]1COC[C@H](n2c3ccc(Cl)cc3c3cc(Cl)ccc32)[C@H]1O)c1ccc(OC(F)(F)F)cc1 (relative stereo) [Target T18-2] | 12.2 | 2.36 | 9.23 |  | 
3 | N=[S@](=O)(N[C@@H]1COC[C@H](N2c3ccccc3Oc3ccccc32)[C@H]1O)c1ccc(OC(F)(F)F)cc1 (relative stereo) [Target T14-1] | 25.6 | 6.21 |  | 35.4 @30 μM % | 
4 | N=[S@@](=O)(N[C@@H]1CCC[C@H](N2c3ccccc3Oc3ccccc32)[C@H]1O)c1ccc(OC(F)(F)F)cc1 (relative stereo) [Target T11-2] | 16.8 | 4.82 | 26 |  | 
5 | O=S(=NCC1CC1)(N[C@@H]1COC[C@H](N2c3ccccc3Oc3ccccc32)[C@H]1O)c1ccc(OC(F)(F)F)cc1 (stereo partly drawn) [Target T15A, N-(cyclopropylmethyl)-N′-((3R,4R,5S)-4-hydroxy-5-(10H-phenoxazin-10-yl)tetrahydro-2H-pyran-3-yl)-4-(trifluoromethoxy) benzenesulfonimidoamide] | 9.54 |  |  |  | 
6 | O=S(=O)(N[C@@H]1COC[C@H](N2c3ccccc3Oc3ccccc32)[C@H]1O)c1ccc(OC(F)(F)F)cc1 [T10 (DT-061), reference compound] | 10.7 | 17.3 | 89.8 |  | 
7 | CN=[S@](=O)(N[C@@H]1COC[C@H](N2c3ccccc3Oc3ccccc32)[C@H]1O)c1ccc(OC(F)(F)F)cc1 (relative stereo) [Target T15-1] | 16.6 | 3.89 | 19.6 |  | 
8 | N=[S@@](=O)(NC[C@H](O)CN1c2ccccc2CCc2ccccc21)c1ccc(OC(F)(F)F)cc1 (single isomer, unassigned) [Target T5d1] | 25.8 |  |  |  | 
9 | N=[S@](=O)(N[C@@H]1COC[C@H](n2c3ccc(Cl)cc3c3cc(Cl)ccc32)[C@H]1O)c1ccc(OC(F)(F)F)cc1 (relative stereo) [Target T17-1] | 10.2 | 2.43 | 9.75 |  | 
10 | CN=[S@@](=O)(NC[C@H](O)CN1c2ccccc2CCc2ccccc21)c1ccc(OC(F)(F)F)cc1 (single isomer, unassigned) [Target T6d1] | 22.7 |  |  |  | 
11 | CN=[S@@](=O)(N[C@@H]1COC[C@H](N2c3ccccc3Oc3ccccc32)[C@H]1O)c1ccc(OC(F)(F)F)cc1 (relative stereo) [Target T15-2] | 23.6 | 7.15 | 41.8 |  | 
12 | N=[S@@](=O)(N[C@@H]1COC[C@H](n2c3ccc(Cl)cc3c3cc(Cl)ccc32)[C@H]1O)c1ccc(OC(F)(F)F)cc1 (relative stereo) [Target T17-2] | 9.64 | 2.45 | 9.88 |  | 
13 | CN=[S@](=O)(N[C@@H]1COC[C@H](n2c3ccc(Cl)cc3c3cc(Cl)ccc32)[C@H]1O)c1ccc(OC(F)(F)F)cc1 (relative stereo) [Target T18-1] | 8.53 | 1.79 | 5.37 |  | 
14 | O=S(=O)(N[C@@H]1COC[C@H](N2c3ccccc3Oc3ccccc32)[C@H]1O)c1ccc(OC(F)(F)F)cc1 [Target T13, reference compound] |  | 11 | 57 |  | 14.2
15 | N=[S@](=O)(NC[C@H](O)CN1c2ccccc2CCc2ccccc21)c1ccc(OC(F)(F)F)cc1 (single isomer, unassigned) [Target T5d2] | 20.2 |  |  |  | 
16 | O=S(=O)(N[C@@H]1COC[C@H](n2c3ccc(Cl)cc3c3cc(Cl)ccc32)[C@H]1O)c1ccc(OC(F)(F)F)cc1 [Target T16, reference compound] | 8.2 | 3.93 | 16.7 |  | 
17 | N=[S@](=O)(N[C@@H]1CCC[C@H](N2c3ccccc3Oc3ccccc32)[C@H]1O)c1ccc(OC(F)(F)F)cc1 (relative stereo) [Target T11-1] | 16.7 | 4.57 | 24.2 |  | 
18 | CN=[S@](=O)(NC[C@H](O)CN1c2ccccc2CCc2ccccc21)c1ccc(OC(F)(F)F)cc1 (single isomer, unassigned) [Target T6d2] | 24.5 |  |  |  | 
19 | N=[S@@](=O)(N[C@@H]1COC[C@H](N2c3ccccc3Oc3ccccc32)[C@H]1O)c1ccc(OC(F)(F)F)cc1 (relative stereo) [Target T14-2] | 25.6 | 4.12 | 21.2 |  | 

— patent US20230020161A1, “Tricyclic Modulators of PP2A” (Rappta Therapeutics Oy, priority 2020, published 2023)
